Patent US6964760B2, “Antimicrobial polypeptide, nucleic acid, and methods of use” (University of Florida Research Foundation, priority 1997, dated 2005)

Columns and labels:
Format in all cases: cell-based
Gram-negative bacteria = experiment: Overlay technique, Gram-negative bacteria
Procedure: (§1) Three drops of an overnight THB culture of the indicator strain were mixed with 3 ml of molten top agar and poured evenly over the surface of the plate. After an additional 24 hours of incubation, clear zones surrounding the test strain were measured.
(§2) The inhibitory factor inhibited 124 of 125 S. mutans strains tested. […] The following table summarizes the spectrum of activity found for the lantibiotic.

Gram positive organisms = experiment: Overlay technique, Gram positive organisms; settings: including Streptococcus mitts, Streptococcus pyogenes, Staphylococcus aureus, Actinomyces species
Procedure: as §1, §2

[1] = tested on: other strains of S. mutans; experiment: Sterility of agar taken from clear zones; settings: loopfuls of agar taken from clear zones were sterile
S. mutans strains = experiment: Overlay technique, panel of S. mutans strains; settings: mutacin 1140 produced by a JH1140 strain
Procedure: as §1, §2

Substance: mutacin 1140
- Inhibition of Gram-negative bacteria (Gram-negative bacteria): mostly resistant
- Sensitivity of most Gram positive organisms to inhibitory activity (Gram positive organisms): sensitive
- Kind of effect on other strains of S. mutans [1]: bacteriocidal
- S. mutans strains inhibited of strains tested (S. mutans strains): 124 of 125
